# In PMC3750913 (BMC Microbiology, 2013):
# Key:
# DENV-2 [1] = assay: Viral cell-to-cell spread assay; assay type: cell-based, dengue virus type 2
# HCV [2] = assay: Viral cell-to-cell spread assay; assay type: cell-based, hepatitis C virus; settings: HCV
# Procedure: (A) Schematic of the experiment (left) with the virus concentration (PFU/well) and step-wise incubation periods (i, ii, iii) indicated for each virus in the table on the right. Virus infections were established (i) in the different cell types by direct inoculation (HCMV, DENV-2, MV, and RSV) or electroporation of viral RNA (HCV; *), and the cell monolayers were washed with citrate buffer or PBS before being covered with an overlay medium that prevents secondary infection. Initial virus plaques were allowed to form in the subsequent infections (ii), and then the test compounds were added to the overlay medium for an additional time of incubation (iii) before analysis of viral plaque size by immune fluorescence microscopy. Five random virus-positive plaques at the endpoint of the experiment were evaluated for each treatment group of viruses, and the data was plotted as “fold change of plaque area” against the size of the initial viral plaques formed prior to test compound treatment. Analyses for (B) HCMV, (C) HCV, (D) DENV-2, (E) MV, and (F) RSV are indicated in each additional panel. The S29 cell line and the FIP inhibitor were included as controls for HCV and MV, respectively. Results shown are means ± SEM from three independent experiments and representative micrographs of the evaluated plaques are provided in Additional file 1 Figure S1, Additional file 2 Figure S2, Additional file 3 Figure S3, Additional file 4 Figure S4 and Additional file 5 Figure S5. See text for details.
# The examination of HCV spread is based on previously described protocol with some modifications. Huh-7.5 cells were electroporated with HCV Jc1FLAG2(p7-nsGluc2A) RNA (10 μg) as described above to establish random productive infections in the cell population, and then mixed with naïve cells at a ratio of 1:1 before seeding in 12-well plates. […] Medium was changed 24 h post-electroporation with an overlay medium containing the test drugs or control and 0.5% methylcellulose, and the plates were further incubated for 5 days before analysis of HCV-positive foci through immunostaining.
# For immunofluorescence analysis of viral plaque size due to spread, the overlay media were removed and the wells were fixed with ice-cold methanol before blocking with 3% BSA. Samples were then treated at 37°C for 1 h with the respective mouse monoclonal primary antibodies diluted in PBS containing 3% BSA: anti-HCMV gB antibody (1:1,000), anti-NS5A 9E10 antibody for HCV (1:25,000), anti-flavivirus group antibody (1:400) for DENV-2, and anti-RSV fusion protein antibody (1:1,000). After incubation, the wells were washed with PBS three times before applying Alexa Fluor 488 goat anti-mouse IgG (H + L) antibody (Invitrogen), diluted at 1:1,000 (HCMV and RSV) or 1:400 (DENV-2 and HCV) in PBS containing 3% BSA. Following incubation at 37°C for 1 h, the samples were washed with PBS three times prior to visualization by fluorescence microscopy. The fluorescence expression of MV-EGFP could be readily detected without addition of antibodies. Photomicrographs were taken at × 100 magnification (Leica Microsystems; Wetzlar, Germany) and viral plaque sizes were then analyzed with MetaMorph software (Molecular Devices; Sunnyvale, CA, USA). In the case of HCV, cellular nuclei were stained with Hoechst dye (Sigma) prior to visualization and the number of cells in the virus-positive foci was determined. For all virus tested, a total of five random virus-positive plaques were evaluated for each treatment group per independent experiment. Comparison was made between viral plaques stained prior to drug addition and those at the endpoint of the experiment, and the data were plotted as “fold change of plaque area”.
# HCV [3] = assay: Analysis of drug effects post viral entry; assay type: cell-based, hepatitis C virus; settings: HCV, Huh-7.5 cells; CHLA 50 μM, PUG 50 μM, Heparin 1000 μg/ml
# MV [4] = assay: Viral penetration assay; assay type: cell-based, measles virus; settings: MV
# HCMV [5] = assay: Viral attachment assay, method 1 (host cell infection); assay type: cell-based, human cytomegalovirus; settings: HCMV, HEL cells, 4°C; CHLA 60 μM, PUG 40 μM, Heparin 30 μg/ml
# HCMV [6] = assay: Viral penetration assay; assay type: cell-based, human cytomegalovirus; settings: HCMV
# MV [7] = assay: Viral cell-to-cell spread assay; assay type: cell-based, measles virus; settings: MV
# DENV-2 [8] = assay: Viral inactivation assay; assay type: cell-based, dengue virus type 2; settings: DENV-2, Vero cells; CHLA 25 μM, PUG 25 μM, Heparin 200 μg/ml
# HCMV [9] = assay: Analysis of drug effects post viral entry; assay type: cell-based, human cytomegalovirus; settings: HCMV, HEL cells; CHLA 60 μM, PUG 40 μM, Heparin 30 μg/ml
# RSV [10] = assay: Viral attachment assay, method 2 (virus-specific cellular ELISA); assay type: cell-based, respiratory syncytial virus; settings: RSV MOI 5, ELISA, 4°C; highest inhibitory concentration of the compounds
# HCV [11] = assay: as above; assay type: cell-based, hepatitis C virus; settings: HCV MOI 0.1, ELISA, 4°C; highest inhibitory concentration of the compounds
# HCMV [12] = assay: Viral cell-to-cell spread assay; assay type: cell-based, human cytomegalovirus; settings: HCMV
# RSV [13] = assay: Analysis of drug effects post viral entry; assay type: cell-based, respiratory syncytial virus; settings: RSV, HEp-2 cells; CHLA 1 μM, PUG 2 μM, Heparin 1 μg/ml
# DENV-2 [14] = assay: Analysis of drug effects post viral entry; assay type: cell-based, dengue virus type 2; settings: DENV-2, Vero cells; CHLA 25 μM, PUG 25 μM, Heparin 200 μg/ml
# MV [15] = assay: Analysis of drug effects post viral entry; assay type: cell-based, measles virus; settings: MV, CHO-SLAM cells; CHLA 90 μM, PUG 50 μM, Heparin 10 μg/ml
# HCMV [16] = assay: Viral inactivation assay; assay type: cell-based, human cytomegalovirus; settings: HCMV, HEL cells; CHLA 60 μM, PUG 40 μM, Heparin 30 μg/ml
# HCV [17] = assay: Viral attachment assay, method 1 (host cell infection); assay type: cell-based, hepatitis C virus; settings: HCV, Huh-7.5 cells, 4°C; CHLA 50 μM, PUG 50 μM, Heparin 1000 μg/ml
# DENV-2 [18] = assay: as above; assay type: cell-based, dengue virus type 2; settings: DENV-2, Vero cells, 4°C; CHLA 25 μM, PUG 25 μM, Heparin 200 μg/ml
# ADV-5 = system: ADV-5; design: method as in PMID 16894186, PMID 10704346; settings: HS-mediated entry; ref [51], [52]; cited from earlier work
# DENV-2 [19] = assay: Viral penetration assay; assay type: cell-based, dengue virus type 2; settings: DENV-2, Vero cells; CHLA 25 μM, PUG 25 μM, Heparin 200 μg/ml
# HCV [20] = assay: Viral penetration assay; assay type: cell-based, hepatitis C virus; settings: HCV
# RSV [21] = assay: Viral cell-to-cell spread assay; assay type: cell-based, respiratory syncytial virus; settings: RSV
# RSV [22] = assay: Viral attachment assay, method 1 (host cell infection); assay type: cell-based, respiratory syncytial virus; settings: RSV, HEp-2 cells, 4°C; CHLA 1 μM, PUG 2 μM, Heparin 1 μg/ml
# RSV [23] = assay: Viral inactivation assay; assay type: cell-based, respiratory syncytial virus; settings: RSV, HEp-2 cells; CHLA 1 μM, PUG 2 μM, Heparin 1 μg/ml
# HCMV [24] = assay: Viral attachment assay, method 2 (virus-specific cellular ELISA); assay type: cell-based, human cytomegalovirus; settings: HCMV MOI 5, ELISA, 4°C; highest inhibitory concentration of the compounds
# MV [25] = assay: Viral attachment assay, method 1 (host cell infection); assay type: cell-based, measles virus; settings: MV, CHO-SLAM cells, 4°C; CHLA 90 μM, PUG 50 μM, Heparin 10 μg/ml
# DENV-2 [26] = assay: Viral attachment assay, method 2 (virus-specific cellular ELISA); assay type: cell-based, dengue virus type 2; settings: DENV-2 MOI 5, ELISA, 4°C; highest inhibitory concentration of the compounds
# [27] = Huh-7.5 cells, CHLA 50 μM, PUG 50 μM, Heparin 1000 μg/ml
# [28] = CHO-SLAM cells, CHLA 90 μM, PUG 50 μM, Heparin 10 μg/ml
# [29] = HEL cells, CHLA 60 μM, PUG 40 μM, Heparin 30 μg/ml
substance,measurement,setting,value
Heparin [reference compound],"Window of antiviral effects: Cell-to-cell spread, inhibitory effect relative to DMSO control","DENV-2 [1]; DENV-2, Vero cells, CHLA 25 μM, PUG 25 μM, Heparin 200 μg/ml",- (- < 25%)
same,effect on viral plaque size (cell-to-cell spread),"DENV-2 [1]; DENV-2, Figure 7",limited effect
same,"Window of antiviral effects: Cell-to-cell spread, inhibitory effect relative to DMSO control",HCV [2]; [27],- (- < 25%)
same,effect on viral plaque size (cell-to-cell spread),HCV [2]; Figure 7,limited effect
same,"Window of antiviral effects: Post-infection, inhibitory effect relative to DMSO control",HCV [3],+ (+ 25–50%)
same,"Window of antiviral effects: Penetration, inhibitory effect relative to DMSO control",MV [4]; [28],+ (+ 25–50%)
same,protection of the host cell from infection during virus penetration,"MV [4]; shift 4°C to 37°C, Figure 4",< 40%
same,"Window of antiviral effects: Attachment Method 1, inhibitory effect relative to DMSO control",HCMV [5],++ (++ 50–75%)
same,"Window of antiviral effects: Penetration, inhibitory effect relative to DMSO control",HCMV [6]; [29],+ (+ 25–50%)
same,protection of the host cell from infection during virus penetration,"HCMV [6]; shift 4°C to 37°C, Figure 4",< 40%
same,"Window of antiviral effects: Cell-to-cell spread, inhibitory effect relative to DMSO control",MV [7]; [28],- (- < 25%)
same,effect on viral plaque size (cell-to-cell spread),MV [7]; Figure 7,limited effect
same,"Window of antiviral effects: Free particle, inhibitory effect relative to DMSO control",DENV-2 [8],++ (++ 50–75%)
same,"Window of antiviral effects: Post-infection, inhibitory effect relative to DMSO control",HCMV [9],- (- < 25%)
same,"Window of antiviral effects: Attachment Method 2, inhibitory effect relative to DMSO control",RSV [10],++ (++ 50–75%)
same,"Window of antiviral effects: Attachment Method 2, inhibitory effect relative to DMSO control",HCV [11],+++ (+++ > 75%)
same,"Window of antiviral effects: Cell-to-cell spread, inhibitory effect relative to DMSO control",HCMV [12]; [29],- (- < 25%)
same,effect on viral plaque size (cell-to-cell spread),HCMV [12]; Figure 7,limited effect
same,"Window of antiviral effects: Post-infection, inhibitory effect relative to DMSO control",RSV [13],- (- < 25%)
same,"Window of antiviral effects: Post-infection, inhibitory effect relative to DMSO control",DENV-2 [14],- (- < 25%)
same,"Window of antiviral effects: Post-infection, inhibitory effect relative to DMSO control",MV [15],- (- < 25%)
same,"Window of antiviral effects: Free particle, inhibitory effect relative to DMSO control",HCMV [16],+ (+ 25–50%)
same,"Window of antiviral effects: Attachment Method 1, inhibitory effect relative to DMSO control",HCV [17],+ (+ 25–50%)
same,"Window of antiviral effects: Attachment Method 1, inhibitory effect relative to DMSO control",DENV-2 [18],+++ (+++ > 75%)
same,maximum inhibition of ADV-5 by soluble heparin,ADV-5,≤ 50%
same,"Window of antiviral effects: Penetration, inhibitory effect relative to DMSO control",DENV-2 [19],++ (++ 50–75%)
same,"Window of antiviral effects: Penetration, inhibitory effect relative to DMSO control",HCV [20]; [27],- (- < 25%)
same,protection of the host cell from infection during virus penetration,"HCV [20]; shift 4°C to 37°C, Figure 4",< 40%
same,"Window of antiviral effects: Cell-to-cell spread, inhibitory effect relative to DMSO control","RSV [21]; HEp-2 cells, CHLA 1 μM, PUG 2 μM, Heparin 1 μg/ml",- (- < 25%)
same,effect on viral plaque size (cell-to-cell spread),RSV [21]; Figure 7,limited effect
same,"Window of antiviral effects: Attachment Method 1, inhibitory effect relative to DMSO control",RSV [22],+++ (+++ > 75%)
same,"Window of antiviral effects: Free particle, inhibitory effect relative to DMSO control",RSV [23],+ (+ 25–50%)
same,"Window of antiviral effects: Attachment Method 2, inhibitory effect relative to DMSO control",HCMV [24],+++ (+++ > 75%)
same,"Window of antiviral effects: Attachment Method 1, inhibitory effect relative to DMSO control",MV [25],+++ (+++ > 75%)
same,"Window of antiviral effects: Attachment Method 2, inhibitory effect relative to DMSO control",DENV-2 [26],+++ (+++ > 75%)
